“Also recorded” adds a separate entry of the source.
Columns and labels:
[1] = test system: RPS30I-M1-IL-8 3′UTR reporter; experiment: RPS30I-M1 EGFP reporter with IL-8 3′UTR (AU-rich elements), post-transcriptional induction (FIG. 3); type: cell-based, human; settings: HEK293 cells, 3′UTR with 200 bases of IL-8 3′UTR; okadaic acid 100 nM
Experimental: (§1) Selective for post-transcriptional regulation in the RPS30I-M linked-reporter system. HEK293 cells in 96-well plates were transfected with 150 ng of EGFP reporter vectors that are under the transcriptional control of the ribosomal protein RPS30I-M1. The EGFP reporter contains either control stable 3′UTR or 3′UTR which contain 200 bases of IL-8 3′UTR sequences known to contain mRNA destabilization elements, AU-rich elements. After approximately 20 hr, the cells were treated with the following compounds: okadaic acid (100 nM) or IL-α (3 ng/ml) to induce post-transcriptional induction, if any. High resolution images were obtained automatically by BD high-content imager. Quantitation was performed with our in-house ProXcell imaging algorithm.
The AU-rich regions, approximately 200 bases, of TNF-α and IL-8 3′UTR were cloned into the vector. Briefly, a 237 bp region (972-1209 nt: NM_000584, SEQ ID NO. 9) that belongs to the 1250 bp IL-8 3′UTR or 250 bases from TNF-α 3′UTR: (1200-1450 bp, NM_000594, SEQ ID NO. 10) were amplified by RT-PCR using specific primers that contains BamH1 and XbaI restriction sites. The PCR products were cut by BamH I and Xba I sequentially and followed by phenol extraction and ethanol precipitation. The purified cut PCR products were ligated into the EGFP expression vector that has bovine growth hormone 3′UTR that has BamH1 and XbaI sites. […]

[2] = test system: EGFP reporter vectors under the transcriptional control of the ribosomal protein RPS30, RPS23I-M, or RPS30I-M1 sequences; experiment: EGFP reporter under ribosomal protein promoters with control stable 3′UTR, treated with inducers (FIG. 1B); type: cell-based, human; settings: HEK293 cells, okadaic acid 100 nM or TNF-α 10 ng/ml, added about 20 hr after transfection
Experimental: (§2) B HEK293 cells in 96-well plates were transfected with 150 ng of EGFP reporter vectors that are under the transcriptional control of the ribosomal protein RPS30, RPS23I-M, or RPS30I-M1 sequences. The EGFP reporter contains control stable 3′UTR. After approximately 20 hr, the cells were treated with the following compounds: okadaic acid (100 nM) or TNF-α (10 ng/ml) to induce post-transcriptional induction, if any. High resolution images were obtained automatically by BD high-content imager. Quantitation was performed with our in-house ProXcell imaging algorithm.

[3] = test system: control RPS30-3′UTR reporter; experiment: RPS30I-M1 EGFP reporter with control stable 3′UTR, post-transcriptional induction (FIG. 3); type: cell-based, human; settings: HEK293 cells, okadaic acid 100 nM
Experimental: as §1
The RPS30I-M1 with control 3′UTR, RPS30I-M1 with IL-8 3′UTR, and RPS30I-M1 with TNF-α 3′UTR vectors were tested for use to assess post-transcriptional regulation. Transfected cells were stimulated with the following compounds, IL-α or okadaic acid. Any compound or modulators such as protein, expression vector, or small inhibitory RNA, or any other RNA vector can be tested for the post-transcriptional effects, i.e., induction or repression.

[4] = test system: EGFP reporter vector under the transcriptional control of the SV40 promoter; experiment: EGFP reporter under SV40 promoter, treated with inducers (FIG. 2); type: cell-based; settings: HEK293 cells, TNF-α 10 ng/ml
Experimental: as §2, with “HEK293” for “B HEK293”, “CMV” for “ribosomal protein RPS30, RPS23I-M,”, “SV40 promoter.” for “RPS30I-M1 sequences. The EGFP reporter contains control stable 3′UTR.”, “induction,” for “induction, if any.”, “with” for “with our in-house”

[5] = test system: EGFP reporter vector under the transcriptional control of the CMV promoter; experiment: EGFP reporter under CMV promoter, treated with inducers (FIG. 2); type: cell-based; settings: HEK293 cells, TNF-α 10 ng/ml
Experimental: as §2, with “HEK293” for “B HEK293”, “CMV” for “ribosomal protein RPS30, RPS23I-M,”, “SV40 promoter.” for “RPS30I-M1 sequences. The EGFP reporter contains control stable 3′UTR.”, “induction,” for “induction, if any.”, “with” for “with our in-house”

| Compound | post-transcriptional induction of EGFP reporter [1] | induction of EGFP reporter fluorescence [2] | induction of EGFP reporter fluorescence ([2]; listed as okdadaic acid) | post-transcriptional induction of EGFP reporter [3] | transcriptional induction of EGFP reporter [4] | transcriptional induction of EGFP reporter [5] |
| --- | --- | --- | --- | --- | --- | --- |
| C=C1[C@@H](O)[C@@H]2O[C@]3(CC[C@H](/C=C/[C@@H](C)[C@@H]4CC(C)=C[C@@]5(O[C@H](C[C@@](C)(O)C(=O)O)CC[C@H]5O)O4)O3)CC[C@H]2O[C@@H]1[C@@H](O)C[C@H](C)[C@H]1O[C@@]2(CCCCO2)CC[C@H]1C [okadaic acid] | significantly increases | not transcriptionally inducible | no induction | not |  |  |
| TNF-α |  | no induction; also recorded: not transcriptionally inducible |  |  | respond to transcriptional induction | respond to transcriptional induction |

Source: patent publication US8795962B2, “Expression vectors based on modified ribosomal protein promoters and uses thereof in post-transcriptional assessment” (King Faisal Specialist Hospital and Research Center, priority 2008, dated 2014)
